Columns and labels:
[1] = test system: myeloid dendritic cells (DCs); settings: CD40-induced maturation of myeloid DCs; Saemann et al. 2003; cited from earlier work
[2] = test system: JAK
Description: Compounds herein are tested for inhibitory activity of JAK targets according to the following in vitro assay described in Park et al., Analytical Biochemistry 1999, 269, 94-104. The catalytic domains of human JAK1 (a.a. 837-1142), Jak2 (a.a. 828-1132) and Jak3 (a.a. 781-1124) with an N-terminal His tag are expressed using baculovirus in insect cells and purified. The catalytic activity of JAK1, JAK2 or JAK3 is assayed by measuring the phosphorylation of a biotinylated peptide. The phosphorylated peptide is detected by homogenous time resolved fluorescence (HTRF). IC50s of compounds is measured for each kinase in the reactions that contain the enzyme, ATP and 500 nM peptide in 50 mM Tris (pH 7.8) buffer with 100 mM NaCl, 5 mM DTT, and 0.1 mg/mL (0.01%) BSA. The ATP concentration in the reactions is 90 μM for Jak1, 30 μM for Jak2 and 3 μM for Jak3. Reactions are carried out at room temperature for 1 hr and then stopped with 20 μL 45 mM EDTA, 300 nM SA-APC, 6 nM Eu-Py20 in assay buffer (Perkin Elmer, Boston, Mass.). Binding to the Europium labeled antibody takes place for 40 minutes and HTRF signal is measured on a Fusion plate reader (Perkin Elmer, Boston, Mass.).

[3] = test system: NOD mouse model of autoimmune type 1 diabetes; settings: Cetkovic-Cvrlje et al. 2003; cited from earlier work

In the case of COc1cc2ncnc(Nc3ccc(O)c(Br)c3)c2cc1OC [WHI-P-154], the “effect on CD40-induced JAK3 activity, costimulatory molecule expression, IL-12 production and allogeneic stimulatory capacity” value [1] is given as “prevented these effects”.
For N#CCC(C1CCCC1)n1cc(-c2ncnc3[nH]ccc23)cn1 (single isomer, unassigned; peak 3) [Example 67 second peak, 3-Cyclopentyl-3-[4-(7H-pyrrolo[2,3-d]pyrimidin-4-yl)-1H-pyrazol-1-yl]propanenitrile], the “JAK inhibitor activity relative to its enantiomer” value ([2]; final products from the enantiomers separated by preparative-HPLC (OD-H)) was “more active than its enantiomer”.
In the case of COc1cc2ncnc(Nc3ccc(O)cc3)c2cc1OC [JANEX-1], the immunomodulatory activity [3] is listed as “potent immunomodulatory activity” and the onset of diabetes [3] is listed as “delayed the onset of diabetes”.
In the case of N#CC[C@H](C1CCCC1)n1cc(-c2ncnc3[nH]ccc23)cn1 (mixture of isomers) [Example 67, (3R)- and (3S)-3-Cyclopentyl-3-[4-(7H-pyrrolo[2,3-d]pyrimidin-4-yl)-1H-pyrazol-1-yl]propanenitrile], the JAK inhibitor activity ([2]; qualitative, b1163: IC50 of 10 μM or less for any JAK target (JAK1, JAK2, JAK3) is considered active) is reported as “active JAK inhibitors”.
